Measurements published in patent publication US12466806B2, “2-substituted imidazolidine derivative containing aryl bipyridyloxy structure and preparation method and use thereof” (NANTONG UNIVERSITY, priority 2020, dated 2025).

tested on: Mythimna separata; test: Screening of insecticidal activity against Mythimna separata, leaf soaking method (IRAC); assay type: in vivo; conditions: concentration 500 μg/mL; 3rd instar larvae on soaked corn leaves; investigated after 48 h; 24-27° C.
Method: Screening of Insecticidal Activity of Compounds Against Mythimna separate
Adopting the leaf soaking method proposed by the International Resistance Action Committee (IRAC): the test target is Mythimna separata, e.g. the appropriate amount of corn leaves was fully infiltrated in the prepared liquid and then dried naturally in the shade, and placed in a petri dish with a filter paper. The 3rd instar larvas of Mythimna separata were added 10 heads per dish, cultured in the observation room at 24-27° C., and the results were investigated after 48 h. Using a brush to touch the body of the Mythimna separata, if there is no response, it is regarded as a dead insect. The test concentration is 500 μg/mL (the other concentrations of the drug solution can be obtained by diluting the drug solution with the concentration of 500 μg/mL).

| SMILES | death rate % Mythimna separata |
| --- | --- |
| O=[N+]([O-])/N=C1\NCCN1Cc1ccc(Oc2ccc(F)cc2)nc1 [I a] | 100% |
| O=[N+]([O-])/N=C1\NCCN1Cc1ccc(Oc2ccc(Cl)cc2)nc1 [I b] | 100% |
| O=[N+]([O-])/N=C1\NCCN1Cc1ccc(Oc2ccc(Br)cc2)nc1 [I c] | 80% |
| O=[N+]([O-])/N=C1\NCCN1Cc1ccc(Oc2ccccc2)nc1 [I d] | 100% |
| O=[N+]([O-])/N=C1\NCCN1Cc1ccc(Oc2ccc(Cl)cc2Cl)nc1 [I e] | 100% |
| O=[N+]([O-])/N=C1\NCCN1Cc1ccc(Oc2cccc(F)c2F)nc1 [I f] | 100% |
